Experimental data as given in patent US20230338336A1, “METHODS OF TREATING CONDITIONS RELATED TO THE S1P1 RECEPTOR” (Arena Pharmaceuticals, Inc., priority 2020, published 2023).

Tests used:
[1] = Safety and tolerability in clinical studies (Phase 1, healthy adult subjects); format: in vivo, human; conditions: approximately 281 adult subjects, various doses; single doses up to 5 mg, repeated doses up to 4 mg QD
Experimental: (§1) Compound 1, or a pharmaceutically acceptable salt, solvate, or hydrate thereof, is an orally administered, selective, synthetic sphingosine 1-phosphate (S1P) receptor 1, 4, 5 modulator. […] Its safety and tolerability have been evaluated in Phase 1 studies with healthy adult subjects at single doses up to 5 mg and repeated doses up to 4 mg once daily (QD).

[2] = system: microdissected human scalp hair follicles (HF); test: Hair follicle organ culture model, non-inflammatory condition (ex vivo); format: cell-based
Experimental: A hair follicle organ culture model was used to analyze the direct effects of Compound 1 on HF physiology in a non-inflammatory condition. Human full thickness scalp skin from four healthy donors was cultured ex vivo and treated in four groups with 11 HF's per groups: 1. vehicle (DMSO control), 2. 10 nM Compound 1, 3. 100 nM Compound 1, 4. 1 μM Compound 1. Before treatment began, […] full length microdissected HF's were isolated, pictures and length measurements were taken of the HF's, and the HF's were cultured in WCM. On Days 1, 3, and 5 pictures of HF elongation were taken, the medium was changed, and treatment in groups 1-4 occurred. Days 2 and 4 were rest days. Additionally, on Day 2 three HF's per group were frozen for RNAseq twenty-four hours after the previous day's treatment. On Day 6, pictures were taken of the HF elongation, the culture was closed, and 8 HF's per group were embedded in optimal cutting temperature compound (OCT compound) for further microscopic immunohistological analysis.

[3] = Phase 2 dose-ranging study in UC patients and open-label extension; format: in vivo, human; conditions: UC patients
Experimental: as §1

[4] = system: human full thickness scalp skin / hair follicles; test: Human full thickness scalp skin model, AA-like inflammatory environment, with and without IFNγ (ex vivo); format: cell-based
Experimental: To evaluate the effects of Compound 1 on hair follicle physiology and pathology in an AA-like inflammatory environment, a human full thickness scalp skin model was used. Scalp biopsies from two healthy donors were cultured ex vivo and treated with tofacitinib (400 nM) and Compound 1 (10 nM, 100 nM, 1000 nM) in the presence and absence of IFNγ, a key pathological cytokine involved in AA development. 5 mm skin cubes with hair were acquired from a donor (Donor 1) and a donor (Donor 2). Ten groups were tested with one skin punch per group: 1. Vehicle (DMSO control) 2. Tofacitinib (400 nM), 3. 10 nM Compound 1, 4. 100 nM Compound 1 5. 1 μM Compound 1, 6. Vehicle (DMSO control)+100 IU IFNγ, 7. Tofacitinib (400 nM)+100 IU IFNγ, 8. 10 nM Compound 1+100 IU IFNγ, 9. 100 nM Compound 1+100 IU IFNγ 10. 1 μM Compound 1+100 IU IFNγ. On Day 0, isolation of 10×6mm punches with hair was performed. On Days 1, 3, and 5 the medium was changed and treatment with groups 1-10 occurred. Days 2 and 4 were rest days. On Day 6, the culture was closed and embedded in OCT Compound for further microscopic analysis.

O=C(O)C[C@H]1CCc2c1[nH]c1ccc(OCc3ccc(C4CCCC4)c(C(F)(F)F)c3)cc21 [Compound 1, (R)-2-(7-(4-cyclopentyl-3-(trifluoromethyl)benzyloxy)-1,2,3,4-tetrahydrocyclopenta[b]indol-3-yl)acetic acid]
Safety and tolerability [1]: safe and well-tolerated | Hair cycle staging / hair cycle score (anagen phase) ([2]; 10 nM and 100 nM, 6-day HF organ culture, vs vehicle (FIG. 7)): tendentially prolonged the anagen phase | MICA expression (stress signal) ([2]; 100 nM, anagen and catagen HFs combined and anagen HFs alone (FIG. 9)): significantly reduced | RNAseq: genes involved in hair keratinization ([2]; 10 nm and 100 nm groups, HFs frozen 24 h after treatment): significant up-regulation | MHC class I (MHC-I) expression in dermal cup, germinative hair matrix, outer root sheath ([2]; anagen and catagen HFs combined and anagen HFs alone (FIGS. 8a, 8b)): no change | Endoscopic and symptomatic improvements versus placebo ([3]; 2 mg QD for 12 weeks): clinically meaningful and statistically significant | Duration of beneficial effects in open-label extension study ([3]; up to 46 weeks): Sustained beneficial effects | IFNγ-mediated MHC-I up-regulation in the dermal cup of the hair follicle ([4]; +100 IU IFNγ (FIG. 11)): prevented | Hair cycle staging / hair cycle score (anagen) ([4]; Donor 1, without IFNγ (FIG. 10)): tendentially prolonged anagen | Increase of CD8-S1P1+ cells showing lymphocytic morphology ([4]; Donor 2 (FIG. 12)): prevented | Increase of perifollicular CD8+ cells showing lymphocytic morphology ([4]; Donor 2 (FIG. 12)): prevented
